From patent publication US8604016B2, “Heterocyclic inhibitors of glutaminase” (Calithera Biosciences Inc., priority 2011, dated 2013)

Target: recombinant form of Glutaminase 1 (GAC) (Homo sapiens, UniProt O94925)
Test: Recombinant Enzyme Assay (GAC coupled to GDH, NADH absorbance, no preincubation)
Type: biochemical
Conditions: no preincubation; read-out: GAC Delta N2 IC50 no preinc
Experimental: Enzymatic reaction was started with the addition of 50 μL of enzyme solution (50 mM Tris-HCl pH 8.0, 0.2 mM EDTA, 150 mM K2HPO4, 0.1 mg/ml BSA, 1 mM DTT, 10 ppm antifoam, 4 units/ml GDH, 4 mM adenosine diphosphate, and 4 nM GAC) and read in a Molecular Devices M5 plate reader at 20° C. The plate reader was configured to read absorbance (λ=340 nm) in kinetic mode for 15 minutes. Data was recorded as milli-absorbance units per minute and slopes were compared to a control compound and a DMSO-only control on the same plate. Compounds with slopes less than the DMSO control were considered inhibitors and plate variability was assessed using the control compound.

SMILES | IC50
CC(C)(C)OC(=O)N1CCN(C(C(=O)Nc2nnc(CCCCc3nnc(NC(=O)C(c4ccccc4)N4CCN(C(=O)OC(C)(C)C)CC4)s3)s2)c2ccccc2)CC1 (centres unmarked) [Compound 63] | 25 µM
O=C1CC(C(=O)Nc2nnc(CCCCc3nnc(NC(=O)C4CC(=O)c5ccccc54)s3)s2)c2ccccc21 (centres unmarked) [Compound 64] | 1.3 µM
COC(C(=O)Nc1nnc(CCCCc2nnc(NC(=O)C(OC)c3ccccc3)s2)s1)c1ccccc1 (centres unmarked) [Compound 65] | 1.3 µM
CC(=O)O[C@H](C(=O)Nc1nnc(CCCCc2nnc(NC(=O)[C@@H](OC(C)=O)c3ccccc3)s2)s1)c1ccccc1 [Compound 66] | 20 µM
COC(C(=O)Nc1nnc(CCSCCc2nnc(NC(=O)C(OC)c3ccccc3)s2)s1)c1ccccc1 (centres unmarked) [Compound 67] | 3 µM
O=CO[C@@H](C(=O)Nc1nnc(CCCCc2nnc(NC(=O)[C@H](OC=O)c3ccccc3)s2)s1)c1ccccc1 [Compound 68] | 4.9 µM
O=C(Nc1nnc(CCCCc2nnc(NC(=O)C(O)Cc3ccccc3)s2)s1)C(O)Cc1ccccc1 (centres unmarked) [Compound 69] | 0.69 µM
CC(C)(C)OC(=O)N1CCN(C(C(=O)Nc2nnc(CCSCCc3nnc(NC(=O)Cc4ccccc4)s3)s2)c2ccccc2)CC1 (centres unmarked) [Compound 70] | 3.4 µM
CC(=O)O[C@H](C(=O)Nc1nnc(CCSCCc2nnc(NC(=O)[C@@H](OC(C)=O)c3ccccc3)s2)s1)c1ccccc1 [Compound 71] | > 50 µM
CC(C)[C@H](N)C(=O)Nc1nnc(CCCCc2nnc(NC(=O)[C@@H](N)C(C)C)s2)s1 [Compound 73] | > 50 µM
C[C@H](N)C(=O)Nc1nnc(CCSCCc2nnc(NC(=O)[C@H](C)N)s2)s1 [Compound 74] | > 50 µM
O=C(CCc1ccccc1)Nc1nnc(CCSCCc2nnc(NC(=O)CCc3ccccc3)s2)s1 [Compound 75] | > 50 µM
CC(C)(C)OC(=O)N1CCN(C(C(=O)Nc2nnc(CCSCCc3nnc(NC(=O)C(c4ccccc4)N4CCN(C(=O)OC(C)(C)C)CC4)s3)s2)c2ccccc2)CC1 (centres unmarked) [Compound 76] | > 50 µM
O=C(Nc1nnc(CCCCc2nnc(NC(=O)C(c3ccccc3)N3CCNCC3)s2)s1)C(c1ccccc1)N1CCNCC1 (centres unmarked) [Compound 77] | 6.1 µM
O=C(Nc1nnc(CCCCc2nnc(NC(=O)[C@H](O)c3ccccc3)s2)s1)[C@H](O)c1ccccc1 [Compound 80] | 1.8 µM
O=C(Nc1nnc(CCSCCc2nnc(NC(=O)[C@H](O)c3ccccc3)s2)s1)[C@H](O)c1ccccc1 [Compound 81] | 10 µM
O=C(Cc1ccco1)Nc1nnc(CCSCCc2nnc(NC(=O)Cc3ccco3)s2)s1 [Compound 82] | 0.8 µM
O=C(CC1CC1)Nc1nnc(CCSCCc2nnc(NC(=O)CC3CC3)s2)s1 [Compound 83] | 3.9 µM
O=C(Cc1ccsc1)Nc1nnc(CCSCCc2nnc(NC(=O)Cc3ccsc3)s2)s1 [Compound 84] | 0.23 µM
O=C(CC1CC1)Nc1nnc(CCCCc2nnc(NC(=O)CC3CC3)s2)s1 [Compound 85] | 1.5 µM
O=C(Cc1ccco1)Nc1nnc(CCCCc2nnc(NC(=O)Cc3ccco3)s2)s1 [Compound 86] | 0.32 µM
O=C(Cc1cccs1)Nc1nnc(CCCCc2nnc(NC(=O)Cc3cccs3)s2)s1 [Compound 87] | 0.18 µM
O=C(Cc1ccsc1)Nc1nnc(CCCCc2nnc(NC(=O)Cc3ccsc3)s2)s1 [Compound 88] | 0.2 µM

SMILES | IC50
CN(C)C(Cc1ccccc1)C(=O)Nc1nnc(CCCCc2nnc(NC(=O)C(Cc3ccccc3)N(C)C)s2)s1 (centres unmarked) [Compound 89] | > 20 µM
O=C(Nc1nnc(CCCCc2nnc(NC(=O)[C@@H]3CC3c3ccccc3)s2)s1)C1CC1c1ccccc1 (some centres unmarked) [Compound 90] | > 20 µM
O=C(Nc1nnc(CCSCCc2nnc(NC(=O)C3C[C@@H]3c3ccccc3)s2)s1)C1C[C@@H]1c1ccccc1 (some centres unmarked) [Compound 91] | > 20 µM
O=C(Nc1nnc(CCSCCc2nnc(NC(=O)[C@@H](O)c3ccccc3)s2)s1)[C@@H](O)c1ccccc1 [Compound 93] | 0.9 µM
O=C(Nc1nnc(CCCCc2nnc(NC(=O)C3CC(O)c4ccccc43)s2)s1)C1CC(O)c2ccccc21 (centres unmarked) [Compound 94] | 0.28 µM
O=C(Nc1nnc(CCSCCc2nnc(NC(=O)C3CCOC3)s2)s1)C1CCOC1 (centres unmarked) [Compound 95] | 2.9 µM
CC(=O)OC(C)(C)C(=O)Nc1nnc(CCCCc2nnc(NC(=O)C(C)(C)OC(C)=O)s2)s1 [Compound 96] | > 20 µM
Cc1cc(C)n(CC(=O)Nc2nnc(CCSCCc3nnc(NC(=O)Cn4nc(C)cc4C)s3)s2)n1 [Compound 97] | 0.56 µM
CC(C)(C)OC(=O)Nc1cccc(CC(=O)Nc2nnc(CCSCCc3nnc(NC(=O)Cc4cccc(NC(=O)OC(C)(C)C)c4)s3)s2)c1 [Compound 98] | > 20 µM
COCCC(=O)Nc1nnc(CCCCc2nnc(NC(=O)CCOC)s2)s1 [Compound 100] | 8.1 µM
COCCC(=O)Nc1nnc(CCSCCc2nnc(NC(=O)CCOC)s2)s1 [Compound 101] | 24 µM
O=C(Cc1cccc(F)c1)Nc1nnc(CCSCCc2nnc(NC(=O)Cc3cccc(F)c3)s2)s1 [Compound 102] | 0.24 µM
CC1(C)OC(=O)[C@@H](CC(=O)Nc2nnc(CCCCc3nnc(NC(=O)C[C@H]4OC(C)(C)OC4=O)s3)s2)O1 [Compound 103] | 19 µM
CC1(C)OC(=O)[C@@H](CC(=O)Nc2nnc(CCSCCc3nnc(NC(=O)C[C@H]4OC(C)(C)OC4=O)s3)s2)O1 [Compound 104] | > 20 µM
CCC(C)C(=O)Nc1nnc(CCSCCc2nnc(NC(=O)C(C)CC)s2)s1 (centres unmarked) [Compound 105] | 9.9 µM
O=C(CCc1ccccc1)Nc1nnc(CCCCc2nnc(NC(=O)CCc3ccccc3)s2)s1 [Compound 106] | > 20 µM
CCC(C)C(=O)Nc1nnc(CCCCc2nnc(NC(=O)C(C)CC)s2)s1 (centres unmarked) [Compound 107] | 4.3 µM
O=C(Nc1nnc(CCSCCc2nnc(NC(=O)C3CCOCC3)s2)s1)C1CCOCC1 [Compound 108] | > 20 µM
CC(O)(C(=O)Nc1nnc(CCSCCc2nnc(NC(=O)C(C)(O)C(F)(F)F)s2)s1)C(F)(F)F (centres unmarked) [Compound 109] | > 20 µM
CC(C)(C)OC(=O)NC(C(=O)Nc1nnc(CCSCCc2nnc(NC(=O)C(NC(=O)OC(C)(C)C)C3CCCC3)s2)s1)C1CCCC1 (centres unmarked) [Compound 110] | > 20 µM
CC(C)(C)OC(=O)N1CCC(CC(=O)Nc2nnc(CCSCCc3nnc(NC(=O)CC4CCN(C(=O)OC(C)(C)C)CC4)s3)s2)CC1 [Compound 111] | 0.95 µM
CC(C)(C)OC(=O)N1CCCC(CC(=O)Nc2nnc(CCSCCc3nnc(NC(=O)CC4CCCN(C(=O)OC(C)(C)C)C4)s3)s2)C1 (centres unmarked) [Compound 112] | 0.51 µM
CC(C)(C)OC(=O)NC(C(=O)Nc1nnc(CCCCc2nnc(NC(=O)C(NC(=O)OC(C)(C)C)C3CCCC3)s2)s1)C1CCCC1 (centres unmarked) [Compound 113] | > 20 µM

SMILES | IC50
CC(C)(C)OC(=O)N1CCC(CC(=O)Nc2nnc(CCCCc3nnc(NC(=O)CC4CCN(C(=O)OC(C)(C)C)CC4)s3)s2)CC1 [Compound 114] | 0.6 µM
CC(C)(C)OC(=O)N1CCCC(CC(=O)Nc2nnc(CCCCc3nnc(NC(=O)CC4CCCN(C(=O)OC(C)(C)C)C4)s3)s2)C1 (centres unmarked) [Compound 115] | 0.62 µM
O=C(Cc1cccs1)Nc1nnc(CCSCCc2nnc(NC(=O)Cc3cccs3)s2)s1 [Compound 116] | 0.24 µM
COc1ccc2c(c1)CC(C(=O)Nc1nnc(CCSCCc3nnc(NC(=O)C4Cc5cc(OC)ccc5O4)s3)s1)O2 (centres unmarked) [Compound 117] | 2.4 µM
O=C(Nc1nnc(CCSCCc2nnc(NC(=O)C3Cc4cc(Br)ccc4O3)s2)s1)C1Cc2cc(Br)ccc2O1 (centres unmarked) [Compound 118] | 5 µM
CC1(C(=O)Nc2nnc(CCSCCc3nnc(NC(=O)C4(C)CCCO4)s3)s2)CCCO1 (centres unmarked) [Compound 119] | > 20 µM
O=C(Nc1nnc(CCCCc2nnc(NC(=O)C3Cc4cc(Cl)ccc4O3)s2)s1)C1Cc2cc(Cl)ccc2O1 (centres unmarked) [Compound 120] | 1.8 µM
COc1ccc2c(c1)CC(C(=O)Nc1nnc(CCCCc3nnc(NC(=O)C4Cc5cc(OC)ccc5O4)s3)s1)O2 (centres unmarked) [Compound 121] | 1.7 µM
O=C(Nc1nnc(CCCCc2nnc(NC(=O)C3Cc4cc(Br)ccc4O3)s2)s1)C1Cc2cc(Br)ccc2O1 (centres unmarked) [Compound 122] | 3.5 µM
CC1(C(=O)Nc2nnc(CCCCc3nnc(NC(=O)C4(C)CCCO4)s3)s2)CCCO1 (centres unmarked) [Compound 123] | 12 µM
O=C(CC1CCCNC1)Nc1nnc(CCSCCc2nnc(NC(=O)CC3CCCNC3)s2)s1 (centres unmarked) [Compound 124] | > 20 µM
NC(C(=O)Nc1nnc(CCSCCc2nnc(NC(=O)C(N)C3CCCC3)s2)s1)C1CCCC1 (centres unmarked) [Compound 125] | > 20 µM
O=C(C[C@@H](O)c1ccccc1)Nc1nnc(CCCCc2nnc(NC(=O)C[C@@H](O)c3ccccc3)s2)s1 [Compound 127] | 1.8 µM
CC(=O)N[C@@H](C(=O)Nc1nnc(CCSCCc2nnc(NC(=O)[C@H](NC(C)=O)c3ccccc3)s2)s1)c1ccccc1 [Compound 128] | 32 µM
O=C(CC1CCNCC1)Nc1nnc(CCSCCc2nnc(NC(=O)CC3CCNCC3)s2)s1 [Compound 129] | > 20 µM
O=C(CC1CCCNC1)Nc1nnc(CCCCc2nnc(NC(=O)CC3CCCNC3)s2)s1 (centres unmarked) [Compound 130] | > 20 µM
NC(C(=O)Nc1nnc(CCCCc2nnc(NC(=O)C(N)C3CCCC3)s2)s1)C1CCCC1 (centres unmarked) [Compound 131] | 19 µM
O=C(CC1CCNCC1)Nc1nnc(CCCCc2nnc(NC(=O)CC3CCNCC3)s2)s1 [Compound 132] | > 20 µM
O=C(Nc1nnc(CCSCCc2nnc(NC(=O)C3Oc4ccccc4O3)s2)s1)C1Oc2ccccc2O1 [Compound 134] | 14 µM
O=C(Nc1nnc(CCCCc2nnc(NC(=O)C3Oc4ccccc4O3)s2)s1)C1Oc2ccccc2O1 [Compound 136] | 7 µM
N[C@@H](CO)C(=O)Nc1nnc(CCSCCc2nnc(NC(=O)[C@@H](N)CO)s2)s1 [Compound 137] | > 20 µM
C[C@@H](O)[C@H](N)C(=O)Nc1nnc(CCSCCc2nnc(NC(=O)[C@@H](N)[C@@H](C)O)s2)s1 [Compound 139] | > 20 µM
